The record followed here is US20180000085A1, “USE OF PICOLINAMIDE COMPOUNDS WITH FUNGICIDAL ACTIVITY” (DOW AGROSCIENCES LLC, priority 2014, published 2018).

For one experiment, the system named is Puccinia triticina. Kind of experiment: Wheat brown rust (PUCCRT) disease control on wheat seedlings. Details: key to PUCCRT 3DC, HV activity at 100 ppm (% control rating) / PUCCRT disease control, 3DC / PUCCRT 1DP disease control rating, HV activity / PUCCRT 3DC disease control rating, HV activity / PUCCRT 3DC, LV activity at 125.1 g/H (% Control rating) / PUCCRT 1DP, LV activity at 125.1 g/H (% Control rating) / PUCCRT 3DC disease control rating, LV activity at 125.1 g/H / PUCCRT 1DP disease control rating, LV activity at 125.1 g/H / PUCCRT 3DC disease control rating, HV activity at 100 ppm / PUCCRT 1DP disease control rating, HV activity at 100 ppm / HV activity at 100 ppm PUCCRT 3DC (disease control rating) / LV activity at 125.1 g/H PUCCRT 1DP (disease control rating) / LV activity at 125.1 g/H PUCCRT 3DC (disease control rating): A: > 80; B: ≤ 80; C: Not Tested; D: No Activity Observed in the Reported Assay. The experiment is classed as in vivo. As to conditions: for PUCCRT 1DP disease control rating, HV activity at 100 ppm / PUCCRT 3DC disease control rating, HV activity at 100 ppm: high volume application; for PUCCRT 1DP disease control rating, HV activity at 100 ppm / PUCCRT 1DP disease control rating, LV activity at 125.1 g/H: 1 day protectant; for PUCCRT 3DC disease control rating, HV activity at 100 ppm / PUCCRT 3DC disease control rating, LV activity at 125.1 g/H: 3 day curative; for PUCCRT 1DP disease control rating, HV activity / PUCCRT 3DC disease control rating, HV activity: HV application at 100 ppm.

For a further experiment, the system named is Zymoseptoria tritici. Briefly: Leaf blotch of wheat (SEPTTR) disease control on wheat seedlings. The experiment is classed as in vivo. Also on record: key to SEPTTR 1DP, HV activity at 100 ppm (% control rating) / SEPTTR 3DC, HV activity at 100 ppm (% control rating) / SEPTTR disease control, 1DP / SEPTTR disease control, 3DC / SEPTTR 1DP disease control rating, HV activity / SEPTTR 3DC disease control rating, HV activity / SEPTTR 3DC, LV activity at 125.1 g/H (% Control rating) / SEPTTR 1DP, LV activity at 125.1 g/H (% Control rating) / SEPTTR 1DP disease control rating, LV activity at 125.1 g/H / SEPTTR 3DC disease control rating, LV activity at 125.1 g/H / SEPTTR 3DC disease control rating, HV activity at 100 ppm / SEPTTR 1DP disease control rating, HV activity at 100 ppm / HV activity at 100 ppm SEPTTR 3DC (disease control rating) / HV activity at 100 ppm SEPTTR 1DP (disease control rating) / LV activity at 125.1 g/H SEPTTR 1DP (disease control rating) / LV activity at 125.1 g/H SEPTTR 3DC (disease control rating): A: > 80; B: ≤ 80; C: Not Tested; D: No Activity Observed in the Reported Assay. Conditions: for SEPTTR 1DP disease control rating, HV activity at 100 ppm / SEPTTR 3DC disease control rating, HV activity at 100 ppm: high volume application; for SEPTTR 1DP disease control rating, HV activity at 100 ppm / SEPTTR 1DP disease control rating, LV activity at 125.1 g/H: 1 day protectant; for SEPTTR 3DC disease control rating, HV activity at 100 ppm / SEPTTR 3DC disease control rating, LV activity at 125.1 g/H: 3 day curative; for SEPTTR 1DP disease control rating, HV activity / SEPTTR 3DC disease control rating, HV activity: HV application at 100 ppm.

[1] abbreviates: low volume application, 125.1 g/H, 1 Day Protectant.
Setting [2] is: low volume application, 125.1 g/H, 3 Day Curative.
The mark [3] stands for this setting: low volume application, 125.1 g/H.
[4] abbreviates: 1 Day Protectant, wheat brown rust.
[5] abbreviates: 3 Day Curative, wheat brown rust.
[6] abbreviates: 1 Day Protectant, wheat leaf blotch.
Setting [7] is: 3 Day Curative, wheat leaf blotch.
Setting [8] is: HV application, 100 ppm, 1 Day Protectant.
Setting [9] is: HV application, 100 ppm, 3 Day Curative.

Structures are written as SMILES.

Take `COc1ccnc(C(=O)N[C@@H](C)C(=O)O[C@@H](C)[C@H](Oc2cccc(Cl)c2)c2ccccc2)c1OC(C)=O` [Cmpd 638]: in the experiment on Puccinia triticina (setting [1]), the “PUCCRT 1DP, LV activity at 125.1 g/H (% Control rating)” value is “A (> 80)”. Moreover, in the experiment on Puccinia triticina (setting [2]), the “PUCCRT 3DC, LV activity at 125.1 g/H (% Control rating)” value is on record as “B (≤ 80)”. In addition, in the experiment on Zymoseptoria tritici (setting [1]), the “SEPTTR 1DP, LV activity at 125.1 g/H (% Control rating)” value is listed as “A (> 80)”. Besides, in the experiment on Zymoseptoria tritici (setting [2]), the “SEPTTR 3DC, LV activity at 125.1 g/H (% Control rating)” value is reported as “A (> 80)”.

On to `CCCOC(c1ccccc1)C(C)OC(=O)C(C)NC(=O)c1nccc(OC)c1O` (centres unmarked) [Cmpd 821], for which, in the experiment with Puccinia triticina (100 ppm), the “PUCCRT 1DP disease control rating, HV activity at 100 ppm” value was “A (> 80)” and the “PUCCRT 3DC disease control rating, HV activity at 100 ppm” value is “A (> 80)”. In the experiment with Zymoseptoria tritici (100 ppm), the “SEPTTR 1DP disease control rating, HV activity at 100 ppm” value is on record as “B (≤ 80)” and the “SEPTTR 3DC disease control rating, HV activity at 100 ppm” value is “B (≤ 80)”.

Turning to `CC[C@H](NC(=O)c1nccc(OC)c1O)C(=O)O[C@@H](C)[C@H](Oc1ccccc1)C(C)C` [Cmpd 810], in the experiment on Puccinia triticina (100 ppm), the “PUCCRT 1DP disease control rating, HV activity at 100 ppm” value is on record as “A (> 80)” and the “PUCCRT 3DC disease control rating, HV activity at 100 ppm” value is “A (> 80)”. Besides, in the experiment on Zymoseptoria tritici (100 ppm), the “SEPTTR 1DP disease control rating, HV activity at 100 ppm” value is recorded as “A (> 80)” and the “SEPTTR 3DC disease control rating, HV activity at 100 ppm” value was “A (> 80)”.

Consider `COc1ccnc(C(=O)N[C@@H](C)C(=O)O[C@@H](C)[C@H](OCC(C)C)C2CCCC2)c1OC(C)=O` [Cmpd 922], for which, in the experiment on Puccinia triticina (setting [3]), the “PUCCRT 1DP disease control rating, LV activity at 125.1 g/H” value was “A (> 80)” and the “PUCCRT 3DC disease control rating, LV activity at 125.1 g/H” value is “A (> 80)”. Further, in the experiment with Zymoseptoria tritici (setting [3]), the “SEPTTR 1DP disease control rating, LV activity at 125.1 g/H” value is listed as “A (> 80)” and the “SEPTTR 3DC disease control rating, LV activity at 125.1 g/H” value is “B (≤ 80)”.

Turning to `CCCOC(CC)C(Oc1ccccc1)C(C)OC(=O)C(CC(C)C)NC(=O)c1nccc(OC)c1OC(C)=O` (centres unmarked) [Cmpd 452], in the experiment on Puccinia triticina (setting [4]), the “PUCCRT 1DP disease control rating, HV activity” value is on record as “A (> 80)”. Also, in the experiment with Puccinia triticina (setting [5]), the “PUCCRT 3DC disease control rating, HV activity” value is “A (> 80)”. The “SEPTTR 1DP disease control rating, HV activity” value in the experiment on Zymoseptoria tritici (setting [6]) was “B (≤ 80)”. Moreover, the “SEPTTR 3DC disease control rating, HV activity” value with Zymoseptoria tritici (setting [7]) is given as “B (≤ 80)”.

Consider `CCC(CC)C(Oc1cc(F)cc(Cl)c1)C(C)OC(=O)C(CC(C)C)NC(=O)c1nccc(OC)c1OC(C)=O` (centres unmarked) [Cmpd 688], for which, in the experiment on Puccinia triticina (setting [3]), the “PUCCRT 1DP disease control rating, LV activity at 125.1 g/H” value was “D” and the “PUCCRT 3DC disease control rating, LV activity at 125.1 g/H” value is “D”. For the same molecule, in the experiment with Zymoseptoria tritici (setting [3]), the “SEPTTR 1DP disease control rating, LV activity at 125.1 g/H” value is “D” and the “SEPTTR 3DC disease control rating, LV activity at 125.1 g/H” value is on record as “B (≤ 80)”.

As to `CCC(CC)[C@@H](Oc1cccc(F)c1)[C@H](C)OC(=O)[C@@H](NC(=O)c1nccc(OC)c1OCOC(C)=O)C(C)C` [Cmpd 645], in the experiment with Puccinia triticina (setting [8]), the “PUCCRT 1DP, HV activity at 100 ppm (% control rating)” value is “A (> 80)”. The “PUCCRT 3DC, HV activity at 100 ppm (% control rating)” value with Puccinia triticina (setting [9]) is recorded as “A (> 80)”. For the same molecule, in the experiment on Puccinia triticina (setting [1]), the “PUCCRT 1DP, LV activity at 125.1 g/H (% Control rating)” value was “A (> 80)”. The “PUCCRT 3DC, LV activity at 125.1 g/H (% Control rating)” value with Puccinia triticina (setting [2]) is “A (> 80)”. Further, the “SEPTTR 1DP, HV activity at 100 ppm (% control rating)” value in the experiment with Zymoseptoria tritici (setting [8]) is given as “A (> 80)”. Further, the “SEPTTR 3DC, HV activity at 100 ppm (% control rating)” value with Zymoseptoria tritici (setting [9]) is on record as “A (> 80)”. In addition, the “SEPTTR 1DP, LV activity at 125.1 g/H (% Control rating)” value in the experiment on Zymoseptoria tritici (setting [1]) is listed as “D”. Further, in the experiment with Zymoseptoria tritici (setting [2]), the “SEPTTR 3DC, LV activity at 125.1 g/H (% Control rating)” value is reported as “A (> 80)”.

Take `CCOc1ccnc(C(=O)N[C@@H](C)C(=O)O[C@@H](C)[C@@H](CC(C)C)Oc2cccc(F)c2)c1OC(C)=O` [Cmpd 1107]: the “LV activity at 125.1 g/H PUCCRT 1DP (disease control rating)” value with Puccinia triticina (low volume application, 125.1 g/H, 1 Day Protectant, wheat brown rust) was “B (≤ 80)”. For the same molecule, the “LV activity at 125.1 g/H PUCCRT 3DC (disease control rating)” value in the experiment with Puccinia triticina (low volume application, 125.1 g/H, 3 Day Curative, wheat brown rust) is “B (≤ 80)”. For the same molecule, the “LV activity at 125.1 g/H SEPTTR 1DP (disease control rating)” value in the experiment on Zymoseptoria tritici (low volume application, 125.1 g/H, 1 Day Protectant, wheat leaf blotch) was “D”. Besides, in the experiment with Zymoseptoria tritici (low volume application, 125.1 g/H, 3 Day Curative, wheat leaf blotch), the “LV activity at 125.1 g/H SEPTTR 3DC (disease control rating)” value is listed as “D”.

Take `CCC(CC)C(Oc1cc(F)ccc1F)C(C)OC(=O)C(CC(C)C)NC(=O)c1nccc(OC)c1O` (centres unmarked) [Cmpd 428]: in the experiment with Puccinia triticina (setting [4]), the “PUCCRT 1DP disease control rating, HV activity” value is “B (≤ 80)”. For the same molecule, the “PUCCRT 3DC disease control rating, HV activity” value in the experiment with Puccinia triticina (setting [5]) is listed as “D”. In addition, in the experiment with Zymoseptoria tritici (setting [6]), the “SEPTTR 1DP disease control rating, HV activity” value was “D”. In addition, the “SEPTTR 3DC disease control rating, HV activity” value with Zymoseptoria tritici (setting [7]) is listed as “D”.

With `COc1ccnc(C(=O)N[C@@H](C)C(=O)O[C@@H](C)COCc2ccccc2)c1O` [Cmpd 331], in the experiment with Puccinia triticina (setting [4]), the “PUCCRT 1DP disease control rating, HV activity” value is reported as “B (≤ 80)”. In addition, the “PUCCRT 3DC disease control rating, HV activity” value in the experiment on Puccinia triticina (setting [5]) is “A (> 80)”. Also, in the experiment with Zymoseptoria tritici (setting [6]), the “SEPTTR 1DP disease control rating, HV activity” value is “B (≤ 80)”. Moreover, the “SEPTTR 3DC disease control rating, HV activity” value in the experiment with Zymoseptoria tritici (setting [7]) is “D”.
